Source: PubChem BioAssay (NCI)
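Cultured in 96-well plates, cells were exposed to test compound for 48 hours across five concentrations. GI50: concentration for 50% inhibition of growth. TGI: concentration producing complete growth inhibition.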

What was measured:
Test in all cases: inhibition of tumour cell growth, NCI panel, 48 h; in the data active = GI50 below about 0.43 µM; inactive = the rest
786-0 renal = system: 786-0 renal
HT29 colon = system: HT29 colon
NCI-H226 lung = system: NCI-H226 lung
NCI-H522 lung = system: NCI-H522 lung
PC-3 prostate = system: PC-3 prostate
RPMI-8226 leukemia = system: RPMI-8226 leukemia
SF-539 CNS = system: SF-539 CNS
SK-OV-3 ovarian = system: SK-OV-3 ovarian
SNB-19 CNS = system: SNB-19 CNS
SW-620 colon = system: SW-620 colon

S=C(Nc1ccc(-c2nc3ccccc3[nH]2)cc1)Nc1ccc(-c2nc3ccccc3[nH]2)cc1
> 100 µM: TGI (786-0 renal) | TGI (HT29 colon) | TGI (NCI-H226 lung) | TGI (PC-3 prostate) | TGI (RPMI-8226 leukemia) | TGI (SF-539 CNS) | TGI (SK-OV-3 ovarian) | TGI (SNB-19 CNS) | TGI (SW-620 colon)
inactive: GI50 (786-0 renal) 89.7 µM | GI50 (HT29 colon) > 100 µM | GI50 (NCI-H226 lung) 39.2 µM | GI50 (NCI-H522 lung) 24.5 µM | GI50 (PC-3 prostate) > 100 µM | GI50 (RPMI-8226 leukemia) 71.8 µM | GI50 (SF-539 CNS) > 100 µM | GI50 (SK-OV-3 ovarian) > 100 µM | GI50 (SNB-19 CNS) > 100 µM | GI50 (SW-620 colon) > 100 µM
99.4 µM: TGI (NCI-H522 lung)

N=c1ccn(O)cc1/C=C1/C(=O)Nc2ccccc21
inactive: GI50 (786-0 renal) > 100 µM | GI50 (HT29 colon) > 100 µM | GI50 (NCI-H226 lung) > 100 µM | GI50 (NCI-H522 lung) > 100 µM | GI50 (PC-3 prostate) > 100 µM | GI50 (RPMI-8226 leukemia) > 100 µM | GI50 (SF-539 CNS) > 100 µM | GI50 (SK-OV-3 ovarian) > 100 µM | GI50 (SNB-19 CNS) > 100 µM | GI50 (SW-620 colon) > 100 µM
> 100 µM: TGI (786-0 renal) | TGI (HT29 colon) | TGI (NCI-H226 lung) | TGI (NCI-H522 lung) | TGI (PC-3 prostate) | TGI (RPMI-8226 leukemia) | TGI (SF-539 CNS) | TGI (SK-OV-3 ovarian) | TGI (SNB-19 CNS) | TGI (SW-620 colon)

CS(=O)(=O)CCc1cccc(C(=O)c2cnn(-c3ccc(F)cc3)c2N)c1
inactive: GI50 (786-0 renal) > 25 µM | GI50 (HT29 colon) > 25 µM | GI50 (NCI-H226 lung) > 25 µM | GI50 (NCI-H522 lung) > 25 µM | GI50 (PC-3 prostate) > 25 µM | GI50 (RPMI-8226 leukemia) > 25 µM | GI50 (SF-539 CNS) > 25 µM | GI50 (SK-OV-3 ovarian) > 25 µM | GI50 (SNB-19 CNS) > 25 µM | GI50 (SW-620 colon) > 25 µM
> 25 µM: TGI (786-0 renal) | TGI (HT29 colon) | TGI (NCI-H226 lung) | TGI (NCI-H522 lung) | TGI (PC-3 prostate) | TGI (RPMI-8226 leukemia) | TGI (SF-539 CNS) | TGI (SK-OV-3 ovarian) | TGI (SNB-19 CNS) | TGI (SW-620 colon)

CC(=O)c1c(C)[nH]c(-c2nc3ccc(N4CCN(C)CC4)cc3[nH]2)c1-c1ccc(N(C)C)cc1
active: GI50 (HT29 colon) 0.299 µM | GI50 (RPMI-8226 leukemia) 0.25 µM
66.9 µM: TGI (PC-3 prostate)
32.9 µM: TGI (NCI-H226 lung)
> 100 µM: TGI (SNB-19 CNS)
inactive: GI50 (786-0 renal) 1.44 µM | GI50 (NCI-H226 lung) 1.95 µM | GI50 (NCI-H522 lung) 0.606 µM | GI50 (PC-3 prostate) 0.894 µM | GI50 (SF-539 CNS) 1.15 µM | GI50 (SK-OV-3 ovarian) 0.465 µM | GI50 (SNB-19 CNS) 1.89 µM | GI50 (SW-620 colon) 2.15 µM
16.6 µM: TGI (NCI-H522 lung)
19.4 µM: TGI (HT29 colon)
25.5 µM: TGI (SW-620 colon)
16.7 µM: TGI (786-0 renal)
1.64 µM: TGI (RPMI-8226 leukemia)
3.65 µM: TGI (SK-OV-3 ovarian)
17.7 µM: TGI (SF-539 CNS)

Clc1ccc(-c2c3c(nn2-c2ccccn2)CCc2ccccc2-3)cc1Cl
> 100 µM: TGI (786-0 renal) | TGI (HT29 colon) | TGI (NCI-H226 lung) | TGI (NCI-H522 lung) | TGI (PC-3 prostate) | TGI (RPMI-8226 leukemia) | TGI (SF-539 CNS) | TGI (SK-OV-3 ovarian) | TGI (SNB-19 CNS) | TGI (SW-620 colon)
inactive: GI50 (786-0 renal) 85 µM | GI50 (HT29 colon) 46.3 µM | GI50 (NCI-H226 lung) > 100 µM | GI50 (NCI-H522 lung) > 100 µM | GI50 (PC-3 prostate) > 100 µM | GI50 (RPMI-8226 leukemia) 31.4 µM | GI50 (SF-539 CNS) > 100 µM | GI50 (SK-OV-3 ovarian) > 100 µM | GI50 (SNB-19 CNS) > 100 µM | GI50 (SW-620 colon) > 100 µM

O=C(Cc1ccc(F)c(F)c1)Nc1cc(C2(C(F)(F)F)CC2)nn1Cc1ccccc1
inactive: GI50 (786-0 renal) 4.52 µM | GI50 (HT29 colon) 3.74 µM | GI50 (NCI-H226 lung) 4.85 µM | GI50 (NCI-H522 lung) 3.08 µM | GI50 (PC-3 prostate) 4.67 µM | GI50 (RPMI-8226 leukemia) 2.82 µM | GI50 (SF-539 CNS) 4.33 µM | GI50 (SK-OV-3 ovarian) 3.56 µM | GI50 (SNB-19 CNS) 4.54 µM | GI50 (SW-620 colon) 3.91 µM
8.67 µM: TGI (RPMI-8226 leukemia)
9.89 µM: TGI (NCI-H522 lung)
11.8 µM: TGI (SK-OV-3 ovarian)
> 15 µM: TGI (786-0 renal) | TGI (HT29 colon) | TGI (NCI-H226 lung) | TGI (PC-3 prostate) | TGI (SF-539 CNS) | TGI (SNB-19 CNS) | TGI (SW-620 colon)
